Measurements taken from US11555012B2 (Nimbus Artemis, Inc., priority 2018, dated 2023).

What was measured:
[1] = target: T1, ACL (Homo sapiens (Human), UniProt P53396); assay: ACLY-MDH Coupled Assay
Target sequence in this assay (P53396 whole entry, species assumed): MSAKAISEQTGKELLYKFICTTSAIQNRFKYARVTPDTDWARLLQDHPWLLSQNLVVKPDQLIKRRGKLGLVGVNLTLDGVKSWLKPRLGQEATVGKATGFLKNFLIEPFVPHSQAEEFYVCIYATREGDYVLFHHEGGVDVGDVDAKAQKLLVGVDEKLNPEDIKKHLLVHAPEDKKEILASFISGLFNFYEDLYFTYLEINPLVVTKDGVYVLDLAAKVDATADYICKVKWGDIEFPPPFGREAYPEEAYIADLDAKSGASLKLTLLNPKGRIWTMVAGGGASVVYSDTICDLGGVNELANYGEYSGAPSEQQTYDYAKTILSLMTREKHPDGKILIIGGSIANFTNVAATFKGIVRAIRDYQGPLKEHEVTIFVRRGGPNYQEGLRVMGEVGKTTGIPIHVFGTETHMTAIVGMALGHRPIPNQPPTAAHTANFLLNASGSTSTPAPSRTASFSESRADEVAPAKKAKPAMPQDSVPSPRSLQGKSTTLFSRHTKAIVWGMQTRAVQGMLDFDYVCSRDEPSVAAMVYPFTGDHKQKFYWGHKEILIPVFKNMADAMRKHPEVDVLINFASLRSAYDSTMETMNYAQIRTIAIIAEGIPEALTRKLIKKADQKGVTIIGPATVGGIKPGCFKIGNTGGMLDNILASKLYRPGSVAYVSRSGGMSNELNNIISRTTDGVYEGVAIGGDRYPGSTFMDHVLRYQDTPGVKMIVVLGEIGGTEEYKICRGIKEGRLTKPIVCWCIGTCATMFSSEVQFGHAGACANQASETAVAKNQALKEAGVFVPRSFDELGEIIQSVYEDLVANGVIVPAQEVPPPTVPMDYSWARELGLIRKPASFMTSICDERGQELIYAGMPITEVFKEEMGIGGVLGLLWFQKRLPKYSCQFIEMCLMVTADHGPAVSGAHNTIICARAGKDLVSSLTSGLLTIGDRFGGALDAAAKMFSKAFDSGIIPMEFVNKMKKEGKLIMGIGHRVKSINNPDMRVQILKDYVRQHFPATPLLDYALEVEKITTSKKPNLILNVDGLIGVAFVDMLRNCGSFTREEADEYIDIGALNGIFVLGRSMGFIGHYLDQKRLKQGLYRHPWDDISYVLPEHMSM
Description: Compounds of the present invention were evaluated in an ACLY Coupled Assay.
The assay protocol for the Coupled Assay (below) was followed:
b) Add 1 μL cpds to 96 assay plate, Test cpd conc: 100/30/10 μM top dose, 3 folds dilution, 10+0+control (control: buffer without ACL+DMSO) points, 1000 rpm for 1 min, incubation at 25° C. for 60 min

[2] = target: T1, ACL; assay: ADP-Glo Assay
Target sequence in this assay (P53396 other isoform, or with tags, fused parts or gaps isoform P53396-2): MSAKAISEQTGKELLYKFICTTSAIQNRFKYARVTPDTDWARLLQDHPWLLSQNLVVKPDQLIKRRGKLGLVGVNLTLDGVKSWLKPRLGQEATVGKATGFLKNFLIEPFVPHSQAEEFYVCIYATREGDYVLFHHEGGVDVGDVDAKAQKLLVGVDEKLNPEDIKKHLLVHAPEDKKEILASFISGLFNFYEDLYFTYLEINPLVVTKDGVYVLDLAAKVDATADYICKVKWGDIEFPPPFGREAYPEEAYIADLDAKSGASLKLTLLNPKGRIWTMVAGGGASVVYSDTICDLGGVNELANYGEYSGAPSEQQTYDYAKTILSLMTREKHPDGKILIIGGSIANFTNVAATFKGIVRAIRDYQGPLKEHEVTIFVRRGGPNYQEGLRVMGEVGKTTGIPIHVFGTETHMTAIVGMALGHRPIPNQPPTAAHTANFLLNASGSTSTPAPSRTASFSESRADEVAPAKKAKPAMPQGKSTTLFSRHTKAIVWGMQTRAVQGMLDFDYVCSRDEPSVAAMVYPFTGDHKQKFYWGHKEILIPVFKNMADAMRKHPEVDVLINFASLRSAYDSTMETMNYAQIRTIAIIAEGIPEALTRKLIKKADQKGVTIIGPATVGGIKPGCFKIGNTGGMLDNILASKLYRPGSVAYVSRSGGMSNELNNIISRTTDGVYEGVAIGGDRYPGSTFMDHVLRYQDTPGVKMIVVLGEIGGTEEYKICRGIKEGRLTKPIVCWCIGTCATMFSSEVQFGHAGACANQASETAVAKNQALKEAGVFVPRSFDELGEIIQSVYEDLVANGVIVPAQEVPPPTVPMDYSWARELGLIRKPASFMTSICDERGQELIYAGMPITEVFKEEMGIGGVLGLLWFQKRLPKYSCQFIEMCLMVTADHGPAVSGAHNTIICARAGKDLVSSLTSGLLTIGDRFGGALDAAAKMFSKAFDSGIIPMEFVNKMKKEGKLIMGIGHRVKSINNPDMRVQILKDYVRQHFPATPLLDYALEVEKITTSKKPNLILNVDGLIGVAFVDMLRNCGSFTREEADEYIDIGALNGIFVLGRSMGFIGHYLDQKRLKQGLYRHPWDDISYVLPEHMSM

[3] = read-out: ACL-MDH Coupled Assay (IC50), 8 nM ACL, 60 μM CoA Na2, 85 μM Citrate, 250 μM ATP, 250 μM NADH
[4] = read-out: ACL-ADP-Glo (IC50), 3 nM ACL, 15 μM ATP, 3 μM CoA, 300 μM Citrate

Structure (SMILES)	IC50 [1] [nM]	IC50 [2] [nM]	IC50 [1, 3] [nM]	IC50 [2, 4] [nM]
O=C(c1cc(Cl)c(O)c(S(=O)(=O)Nc2cc(-c3ccncc3)ccc2F)c1)N1CCC1 [I-202, 5-(azetidine-1-carbonyl)-3-chloro-N-[2-fluoro-5-(pyridin-4-yl)phenyl]-2-hydroxybenzene-1-sulfonamide]	500 to 30000	50 to 500	–	–
O=c1[nH]cc(Cl)cc1S(=O)(=O)Nc1cc(-c2cc3ccccc3s2)ccc1F [I-367, N-(5-(benzo[b]thiophen-2-yl)-2-fluorophenyl)-5-chloro-2-oxo-1,2-dihydropyridine-3-sulfonamide]	500 to 30000	500 to 20000	–	–
CCC(=O)Oc1c(Cl)cc(Cl)cc1S(=O)(=O)Nc1cc(-c2ccccc2)ccc1F [I-50, 2,4-dichloro-6-(N-(4-fluoro-[1,1′-biphenyl]-3-yl)sulfamoyl)phenyl propionate]	500 to 30000	500 to 20000	–	–
O=c1[nH]cc(Cl)cc1S(=O)(=O)Nc1cc(-c2ccccc2)c(F)cc1F [I-326, 5-chloro-N-(4,6-difluoro-[1,1′-biphenyl]-3-yl)-2-oxo-1,2-dihydropyridine-3-sulfonamide]	–	–	50 to 500	50 to 500
COc1ccc(-c2ccccc2)cc1NS(=O)(=O)c1cc(-c2nccn2C)cc(Cl)c1O [I-131, 3-chloro-2-hydroxy-N-[4-methoxy-[1,1-biphenyl]-3-yl]-5-(1-methyl-1H-imidazol-2-yl)benzene-1-sulfonamide]	50 to 500	50 to 500	–	–
CC(C)n1c(NS(=O)(=O)c2cc(Cl)cc(Cl)c2O)c(-c2ccc(F)cc2)c2ccccc21 [I-134, 3,5-dichloro-N-(3-(4-fluorophenyl)-1-isopropyl-1H-indol-2-yl)-2-hydroxybenzenesulfonamide]	500 to 30000	500 to 20000	–	–
COc1c(Cl)cc(Cl)cc1S(=O)(=O)Nc1cc(-c2cc3ccccc3s2)ccc1C(=O)O [I-297, 4-(benzo[b]thiophen-2-yl)-2-((3,5-dichloro-2-methoxyphenyl)sulfonamido)benzoic Acid]	500 to 30000	500 to 20000	–	–
O=C(c1cc(Cl)c(O)c(S(=O)(=O)Nc2cc(-c3ccccc3)c(F)cc2F)c1)N1CC[C@@H](O)C1 [I-106, (R)-3-chloro-N-(4,6-difluoro-[1,1′-biphenyl]-3-yl)-2-hydroxy-5-(3-hydroxypyrrolidine-1-carbonyl)benzenesulfonamide]	50 to 500	–	–	< 50
COc1ccc(-c2ccccc2)cc1NS(=O)(=O)c1cc(C(=O)N2CC(N)C2)cc(Cl)c1O [I-276, 5-(3-aminoazetidine-1-carbonyl)-3-chloro-2-hydroxy-N-[4-methoxy-[1,1-biphenyl]-3-yl]benzene-1-sulfonamide]	50 to 500	–	–	< 50
CN(C(=O)c1cc(Cl)cc(Cl)c1)c1cc(-c2ccccc2)ccc1C(=O)O [I-347, 3-(3,5-dichloro-N-methylbenzamido)-[1,1′-biphenyl]-4-carboxylic Acid]	500 to 30000	500 to 20000	–	–
O=C(c1cc(Cl)c(O)c(S(=O)(=O)Nc2cc3ccsc3cc2F)c1)N1CCC1 [I-221, 5-(azetidine-1-carbonyl)-3-chloro-N-(6-fluoro-1-benzothiophen-5-yl)-2-hydroxybenzene-1-sulfonamide]	500 to 30000	500 to 20000	–	–
O=C(c1cc(Cl)c(O)c(S(=O)(=O)Nc2cc(-c3ccccc3)c(F)cc2F)c1)N1CC(O)C1 [I-129, 3-chloro-N-(4,6-difluoro-[1,1′-biphenyl]-3-yl)-2-hydroxy-5-(3-hydroxyazetidine-1-carbonyl)benzenesulfonamide]	50 to 500	–	–	< 50
O=C(c1cc(Cl)c(O)c(S(=O)(=O)Nc2cc(-c3ccccc3)c(F)cc2F)c1)N1CC[C@H](O)C1 [I-105, (S)-3-chloro-N-(4,6-difluoro-[1,1′-biphenyl]-3-yl)-2-hydroxy-5-(3-hydroxypyrrolidine-1-carbonyl)benzenesulfonamide]	–	–	< 50	< 50
CC(=O)NC1CN(C(=O)c2cc(Cl)c(O)c(S(=O)(=O)Nc3cc(-c4ccccc4)c(F)cc3F)c2)C1 [I-162, N-[1-[3-chloro-5-([4,6-difluoro-[1,1-biphenyl]-3-yl]sulfamoyl)-4-hydroxybenzoyl]azetidin-3-yl]acetamide]	500 to 30000	50 to 500	–	–
O=C(c1cc(Cl)c(O)c(S(=O)(=O)Nc2cc(-c3ccccc3)c(F)cc2F)c1)N1CC[C@H](F)C1 [I-118, (S)-3-chloro-N-(4,6-difluoro-[1,1′-biphenyl]-3-yl)-5-(3-fluoropyrrolidin-1-carbonyl)-2-hydroxybenzenesulfonamide]	50 to 500	–	–	< 50
COc1cc(Br)ccc1NS(=O)(=O)c1cc(Cl)cc(Cl)c1O [I-11, N-(4-bromo-2-methoxyphenyl)-3,5-dichloro-2-hydroxybenzenesulfonamide]	500 to 30000	500 to 20000	–	–
O=C(c1cc(Cl)c(O)c(S(=O)(=O)Nc2cc(-c3ccccc3)cc(F)c2F)c1)N1CCC1 [I-160, 5-(azetidine-1-carbonyl)-3-chloro-N-[4,5-difluoro-[1,1-biphenyl]-3-yl]-2-hydroxybenzene-1-sulfonamide]	–	–	< 50	< 50
NC1CN(C(=O)c2cc(Cl)c(O)c(S(=O)(=O)Nc3cc(-c4cc5ccccc5s4)c(F)cc3F)c2)C1 [I-282, 5-(3-aminoazetidine-1-carbonyl)-N-(5-(benzo[b]thiophen-2-yl)-2,4-difluorophenyl)-3-chloro-2-hydroxybenzenesulfonamide]	–	–	< 50	< 50
COc1ccc(-c2ccccc2)cc1NS(=O)(=O)c1ccc(-c2nn[nH]n2)cc1 [I-407, N-(2-methoxy-5-phenylphenyl)-4-(2H-1,2,3,4-tetrazol-5-yl)benzene-1-sulfonamide]	> 30000	> 20000	–	–
O=C(O)c1ccc(-c2cc3ccccc3s2)cc1NS(=O)(=O)c1cc(Cl)cc(C(F)(F)F)c1 [I-294, 4-(benzo[b]thiophen-2-yl)-2-((3-chloro-5-(trifluoromethyl)phenyl)sulfonamido)benzoic Acid]	500 to 30000	500 to 20000	–	–
COc1cc(F)c(-c2cc3ccccc3s2)cc1NS(=O)(=O)c1cc(C(=O)O)cc(Cl)c1O [I-510]	500 to 30000	500 to 20000	–	–
O=S(=O)(c1cc(Br)cc(Cl)c1O)N(Cc1cncs1)c1ccc(Cl)cc1 [I-514, 5-bromo-3-chloro-N-(4-chlorophenyl)-2-hydroxy-N-(thiazol-5-ylmethyl)benzenesulfonamide]	500 to 30000	500 to 20000	–	–
CC(C)(C)OC(=O)NC1CN(C(=O)c2cc(Cl)c(O)c(S(=O)(=O)Nc3cc(-c4ccccc4)c(F)cc3F)c2)C1 [I-201, tert-butyl N-[1-[3-chloro-5-([4,6-difluoro-[1,1-biphenyl]-3-yl]sulfamoyl)-4-hydroxybenzoyl]azetidin-3-yl]carbamate]	500 to 30000	500 to 20000	–	–

Results, then the compound that gave them:

IC50 [1] [nM]	IC50 [2] [nM]	IC50 [1, 3] [nM]	IC50 [2, 4] [nM]	Structure (SMILES)
500 to 30000	500 to 20000	–	–	CC(C)(C)OC(=O)COc1ccc(-c2ccccc2)cc1NS(=O)(=O)c1cc(C(=O)N2CCC2)cc(Cl)c1O [I-266, tert-butyl 2-((3-((5-(azetidine-1-carbonyl)-3-chloro-2-hydroxyphenyl)sulfonamido)-[1,1′-biphenyl]-4-yl)oxy)acetate]
500 to 30000	500 to 20000	–	–	COC(=O)c1cc(Cl)c(OC)c(S(=O)(=O)Nc2cc(-c3ccccc3)ccc2F)c1 [I-49, Methyl 3-chloro-5-(N-(4-fluoro-[1,1′-biphenyl]-3-yl)sulfamoyl)-4-methoxybenzoate]
50 to 500	500 to 20000	–	–	O=S(=O)(Nc1cc(-c2ccccc2)ccc1O)c1cc(Cl)cc(Cl)c1O [I-28, 3,5-dichloro-2-hydroxy-N-(2-hydroxy-5-phenylphenyl) benzene-1-sulfonamide]
500 to 30000	500 to 20000	–	–	O=C(O)c1ccc(-c2ccccc2)cc1NS(=O)(=O)CC1Cc2ccccc2C1 [I-328]
500 to 30000	500 to 20000	–	–	Cc1c(S(=O)(=O)Nc2cc(-c3ccccc3)ccc2C(=O)O)c2ccccc2n1C [I-335]
500 to 30000	500 to 20000	–	–	COC(=O)c1cc(Br)cc(S(=O)(=O)Nc2cc(-c3ccccc3)ccc2C(=O)O)c1 [I-295, 3-((3-bromo-5-(methoxycarbonyl)phenyl)sulfonamido)-[1,1′-biphenyl]-4-carboxylic Acid]
500 to 30000	500 to 20000	–	–	O=C(O)c1ccc(-c2ccccc2)cc1NS(=O)(=O)c1cc(Cl)sc1Cl [I-331]
500 to 30000	500 to 20000	–	–	Cc1sc2ccccc2c1S(=O)(=O)Nc1cc(-c2ccccc2)ccc1C(=O)O [I-333]
500 to 30000	500 to 20000	–	–	O=C(O)COc1c(Br)cc(Cl)cc1S(=O)(=O)Nc1cc(-c2ccccc2)ccc1F [I-46, 2-(2-bromo-4-chloro-6-(N-(4-fluoro-[1,1′-biphenyl]-3-yl)sulfamoyl)phenoxy)acetic Acid]
500 to 30000	500 to 20000	–	–	Cc1cc(C)cc(S(=O)(=O)Nc2cc(-c3ccccc3)ccc2C(=O)O)c1 [I-232, 3-((3,5-dimethylphenyl)sulfonamido)-[1,1′-biphenyl]-4-carboxylic acid]
500 to 30000	500 to 20000	–	–	O=C(O)COc1ccc(-c2ccccc2)cc1NS(=O)(=O)c1cc(C(F)(F)F)cc(Cl)c1O [I-264, 2-([3-[3-chloro-2-hydroxy-5-(trifluoromethyl)benzenesulfonamido]-[1,1-biphenyl]-4-yl]oxy)acetic Acid]
500 to 30000	500 to 20000	–	–	CC(C)(C)C1CCN(S(=O)(=O)Nc2cc(-c3ccccc3)ccc2C(=O)O)CC1 [I-327]
–	–	< 50	< 50	CO[C@H]1CCN(C(=O)c2cc(Cl)c(O)c(S(=O)(=O)Nc3cc(-c4ccccc4)ccc3F)c2)C1 [I-142, 3-chloro-N-[4-fluoro-[1,1-biphenyl]-3-yl]-2-hydroxy-5-[(3S)-3-methoxypyrrolidine-1-carbonyl]benzene-1-sulfonamide]
